SMILES strings stand for the structures.

T1 sequence (Q9HBW0 whole entry): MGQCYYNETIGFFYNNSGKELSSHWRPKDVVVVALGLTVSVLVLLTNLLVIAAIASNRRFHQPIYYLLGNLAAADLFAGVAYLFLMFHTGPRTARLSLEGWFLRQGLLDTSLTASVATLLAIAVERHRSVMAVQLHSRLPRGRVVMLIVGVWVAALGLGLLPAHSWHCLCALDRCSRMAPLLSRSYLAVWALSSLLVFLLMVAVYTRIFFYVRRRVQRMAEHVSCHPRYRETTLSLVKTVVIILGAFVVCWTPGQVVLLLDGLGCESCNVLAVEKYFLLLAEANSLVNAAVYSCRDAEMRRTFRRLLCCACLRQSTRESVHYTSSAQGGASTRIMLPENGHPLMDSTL

This test addresses T1, LPA2R (Homo sapiens, UniProt Q9HBW0).
T1 construct: expressed in transfected cells; host or cells: U2OS
In words: LPA2R-Calciumflux assay (FLIPR, intracellular calcium mobilisation after LPA). It counts as cell-based. The note with it: U2OS cells recombinant expressing LPA2R; antagonism of LPA-induced calcium flux; racemate of the two trans enantiomers unless marked enantiomer. The source says:
The assay detects intra cellular calcium which is generated by cells upon activation of the LPA2 receptor by its ligand LPA. This transient calcium mobilization can be monitored using a commercial calcium detection kit (e.g. from Molecular Devices). The main component of such a kit is a dye, which becomes fluorescent when calcium is present—a transient fluorescence signal after addition of a ligand to a test well are the result. Readers like the FLIPR (Molecular Devices) can be used to monitor such transient “Ca-flux” signals.
The signals are calculated according to peak maximum minus base line.
Compounds which are antagonists of LPA lead to a decreased mobilisation of intracellular calcium and thus to a lower signal. The assay is performed in microplates (384 wells per plate).
LPA2R-Calciumflux Assay Protocol
The assay is run according to the following procedure:
50 uL seed cells (10000 cells/well in DMEM buffer)
• Incubate 24 h at 37° C., 10% CO2 • aspirate medium 50 uL add calcium dye 1×HBSS/HEPES buffer • incubate 1 h at 37° C. (“loading”) • equilibrate 10 min at RT 5 uL add compounds in HEPES buffer • shake 10 sec. at 1000 rpm • incubate 15 min at RT 20 uL add LPA (in the FLIPR Tetra) in Krebs-buffer/BSA & measurement
The cells are seeded in DMEM buffer (DMEM, 10% FCS, 10 mM HEPES, 1% Pen/Strep).
Dye loading is done in HBSS/HEPES buffer (100 mL 10×HBSS+20 mL 1M HEPES+880 mL water, pH 7.4)
The LPA is added in Krebs/BSA buffer (120 mM NaCl, 5 mM KCl, 0.62 mM MgSO4, 1.8 mM CaCl2, 10 mM HEPES, 6 mM D(+)-Glucose, 0.2% BSA, pH 7.4).
The compounds are pre-diluted in HEPES buffer (20 mM, pH 7.4), whereby the final DMSO content in the assay is kept at 1%. The compounds are pre-diluted in order to generate dose response series on the microplates. The dose response series consist of 10 concentrations for each compound from 30 uM final to 1 nM final. From all compound wells the resulting signals are referred to control wells (located on each plate besides the compound wells) in terms of % activity.
From these % activity values—along with the corresponding compound concentrations—IC50 values are fitted for each compound using standard fitting programs such as Graphpad Prism. Here the method “log(inhibitor) vs. response—Variable slope” is used.
A general note: Calcium assays in cells follow changes in intracellular calcium, usually with a dye or a luminescent sensor.
The term IC50 denotes the concentration that gives 50% inhibition. Regarding `O=C(Nc1nc2ccccc2[nH]1)C1CC1c1ccccc1` (racemic) [2-Phenyl-cyclopropane-carboxylic acid (1H-benzoimidazol-2-yl)-amide], the IC50 fell in the range of 10 to 100 nM.
On to `CN(C(=O)C1CC1c1ccccc1)c1nc2ccccc2[nH]1` (racemic) [2-Phenyl-cyclopropane-carboxylic acid (1H-benzoimidazol-2-yl)-methyl-amide], for which the IC50 is 1000 to 10000 nM.
As to `O=C(Nc1n[nH]c2ccccc12)C1CC1c1ccccc1` (racemic) [2-Phenyl-cyclopropane-carboxylic acid (1H-indazol-3-yl)-amide], the IC50 was over 10000 nM.
As to `O=C(Nc1nc2cccnc2[nH]1)C1CC1c1ccccc1` (racemic) [2-Phenyl-cyclopropane-carboxylic acid (3H-imidazo[4,5-b]pyridin-2-yl)-amide], the IC50 fell in the range of 10 to 100 nM.
As for `O=C(Nc1nc2ccncc2[nH]1)C1CC1c1ccccc1` (racemic) [2-Phenyl-cyclopropane-carboxylic acid (3H-imidazo[4,5-c]pyridin-2-yl)-amide], the IC50 is over 10000 nM.
As to `O=C(Nc1nc2c(Cl)cc(Cl)cc2[nH]1)C1CC1c1ccccc1` (racemic) [2-Phenyl-cyclopropane-carboxylic acid (4,6-dichloro-1H-benzoimidazol-2-yl)-amide], the IC50 lay within 100 to 1000 nM.
For `Nc1cccc2[nH]c(NC(=O)C3CC3c3ccccc3)nc12` (racemic) [2-Phenyl-cyclopropane-carboxylic acid (4-amino-1H-benzoimidazol-2-yl)-amide], the IC50 was in the range of 10 to 100 nM.
With `O=C(Nc1nc2ccnc(Cl)c2[nH]1)C1CC1c1ccccc1` (racemic) [2-Phenyl-cyclopropane-carboxylic acid (4-chloro-3H-imidazo[4,5-c]pyridin-2-yl)-amide], the IC50 lay in the range of 10 to 100 nM.
On to `O=C(Nc1nc2c([N+](=O)[O-])cccc2[nH]1)C1CC1c1ccccc1` (racemic) [2-Phenyl-cyclopropane-carboxylic acid (4-nitro-1H-benzoimidazol-2-yl)-amide], for which the IC50 was in the range of 10 to 100 nM.
Turning to `O=C(Nc1nc2c([N+](=O)[O-])cc(C(F)(F)F)cc2[nH]1)C1CC1c1ccccc1` (racemic) [2-Phenyl-cyclopropane-carboxylic acid (4-nitro-6-trifluoromethyl-1H-benzoimidazol-2-yl)-amide], the IC50 fell in the range of 100 to 1000 nM.
For `O=C(Nc1nc2cc(Cl)c(Cl)cc2[nH]1)C1CC1c1ccccc1` (racemic) [2-Phenyl-cyclopropane-carboxylic acid (5,6-dichloro-1H-benzoimidazol-2-yl)-amide], the IC50 was in the range of 100 to 1000 nM.
`Cc1cc2nc(NC(=O)C3CC3c3ccccc3)[nH]c2cc1C` (racemic) [2-Phenyl-cyclopropane-carboxylic acid (5,6-dimethyl-1H-benzoimidazol-2-yl)-amide]: the IC50 fell in the range of 10 to 100 nM.
Consider `NCc1ccc2[nH]c(NC(=O)C3CC3c3ccccc3)nc2c1` (racemic) [2-Phenyl-cyclopropane-carboxylic acid (5-aminomethyl-1H-benzoimidazol-2-yl)-amide], for which the IC50 lay within 1000 to 10000 nM.
To `N#Cc1ccc2nc(NC(=O)C3CC3c3ccccc3)[nH]c2c1` (racemic) [2-Phenyl-cyclopropane-carboxylic acid (5-cyano-1H-benzoimidazol-2-yl)-amide] belongs 10 to 100 nM; to `CCc1ccc2[nH]c(NC(=O)C3CC3c3ccccc3)nc2c1` (racemic) [2-Phenyl-cyclopropane-carboxylic acid (5-ethyl-1H-benzoimidazol-2-yl)-amide], 10 to 100 nM; to `COc1ccc2[nH]c(NC(=O)C3CC3c3ccccc3)nc2c1` (racemic) [2-Phenyl-cyclopropane-carboxylic acid (5-methoxy-1H-benzoimidazol-2-yl)-amide], 10 to 100 nM.
In the case of `O=C(Nc1nc2cc(Br)cnc2[nH]1)C1CC1c1ccccc1` (racemic) [2-Phenyl-cyclopropane-carboxylic acid (6-bromo-3H-imidazo[4,5-b]pyridin-2-yl)-amide], the IC50 is under 10 nM.
`O=C(Nc1nc2cc(Cl)ccc2[nH]1)C1CC1c1ccccc1` (racemic) [2-Phenyl-cyclopropane-carboxylic acid (6-chloro-1H-benzoimidazol-2-yl)-amide]: the IC50 lay within 10 to 100 nM.
Take `Cc1ccc2nc(NC(=O)C3CC3c3ccccc3)[nH]c2c1` (racemic) [2-Phenyl-cyclopropane-carboxylic acid (6-methyl-1H-benzoimidazol-2-yl)-amide]: the IC50 is 100 to 1000 nM.
As to `O=C(Nc1nc2cc(C(F)(F)F)ccc2[nH]1)C1CC1c1ccccc1` (racemic) [2-Phenyl-cyclopropane-carboxylic acid (6-trifluoromethyl-1H-benzoimidazol-2-yl)-amide], the IC50 was 10 to 100 nM.
For `Cc1cccc2nc(NC(=O)C3CC3c3ccccc3)[nH]c12` (racemic) [2-Phenyl-cyclopropane-carboxylic acid (7-methyl-1H-benzoimidazol-2-yl)-amide], the IC50 was in the range of 100 to 1000 nM.
To `O=C(Nc1nc2cncnc2[nH]1)C1CC1c1ccccc1` (racemic) [2-Phenyl-cyclopropane-carboxylic acid (9H-purin-8-yl)-amide] belongs 1000 to 10000 nM; to `CCCS(=O)(=O)c1ccc2[nH]c(NC(=O)C3CC3c3ccccc3)nc2c1` (racemic) [2-Phenyl-cyclopropane-carboxylic acid [5-(propane-1-sulfonyl)-1H-benzoimidazol-2-yl]-amide], 1000 to 10000 nM.
To `O=C(Nc1nc2c(NCC3CCN(Cc4ccccc4)CC3)cccc2[nH]1)C1CC1c1ccccc1` (racemic) [2-Phenyl-cyclopropane-carboxylic acid {4-[(1-benzyl-piperidin-4-ylmethyl)-amino]-1H-benzoimidazol-2-yl}-amide] belongs 1000 to 10000 nM; to `COC(=O)c1cccc2[nH]c(NC(=O)C3CC3c3ccccc3)nc12` (racemic) [2-[(2-Phenyl-cyclopropane-carbonyl)-amino]-1H-benzoimidazole-4-carboxylic acid methyl ester], 100 to 1000 nM; to `O=C(O)c1ccc2[nH]c(NC(=O)C3CC3c3ccccc3)nc2c1` (racemic) [2-[(2-Phenyl-cyclopropane-carbonyl)-amino]-1H-benzoimidazole-5-carboxylic acid], over 10000 nM.
Consider `Cc1cccc(C2CC2C(=O)Nc2nc3ccccc3[nH]2)c1` (racemic) [2-m-Tolyl-cyclopropane-carboxylic acid (1H-benzoimidazol-2-yl)-amide], for which the IC50 fell in the range of 10 to 100 nM.
Turning to `Cc1ccc(C2CC2C(=O)Nc2nc3ccccc3[nH]2)cc1` (racemic) [2-p-Tolyl-cyclopropane-carboxylic acid (1H-benzoimidazol-2-yl)-amide], the IC50 fell in the range of 1000 to 10000 nM.
The value for `CC(C)(C)OC(=O)NCc1ccc2[nH]c(NC(=O)C3CC3c3ccccc3)nc2c1` (racemic) [{2-[(2-Phenyl-cyclopropane-carbonyl)-amino]-1H-benzoimidazol-5-ylmethyl}-carbamic acid tert-butyl ester] was 100 to 1000 nM.
In the case of `O=C(Nc1nc2ccccc2[nH]1)C1CC1c1ccccc1Cl` (single isomer, unassigned) [enantiomer-2-(2-Chloro-phenyl)-cyclopropane-carboxylic acid (1H-benzoimidazol-2-yl)-amide], the 50% inhibitory concentration (IC50) lay in the range of 10 to 100 nM.
On to `O=C(Nc1nc2cc(Cl)cnc2[nH]1)[C@@H]1C[C@H]1c1ccccc1` (single isomer, unassigned) [trans-2-Phenyl-cyclopropane-carboxylic acid (6-chloro-3H-imidazo[4,5-b]pyridin-2-yl)-amide], for which the IC50 was 1000 to 10000 nM.
The value for `O=C(Nc1nc2ccccc2[nH]1)C1CC1c1ccccc1` (single isomer, unassigned; enantiomer-2) [drawing 58, enantiomer-2-Phenyl-cyclopropane-carboxylic acid (1H-benzoimidazol-2-yl)-amide] was 1000 to 10000 nM.
Turning to `O=C(Nc1nc2ccccc2[nH]1)C1CC1c1ccccc1` (single isomer, unassigned; enantiomer-2) [drawing 59, enantiomer-2-Phenyl-cyclopropane-carboxylic acid (1H-benzoimidazol-2-yl)-amide], the IC50 is under 10 nM.
For the molecule `N#Cc1ccc2nc(NC(=O)C3CC3c3ccccc3)[nH]c2c1` (single isomer, unassigned; enantiomer-2) [drawing 71, enantiomer-2-Phenyl-cyclopropane-carboxylic acid (6-cyano-1H-benzoimidazol-2-yl)-amide], the IC50 fell in the range of 10 to 100 nM.

The values above are taken from patent publication US8912202B2, “N-(benzimimdazol-2-yl)-cyclopropane carboxamides as lysophosphatidic acid antagonists” (Merck Patent GmbH, priority 2011, dated 2014).
